Structures are written as SMILES. Values after ≈ are worked out from the molar mass of the structure shown.

The subject of the assay is KB. Put plainly: Cytotoxicity against human KB cells. It is filed as functional. Conditions: read-out: ED50 (the source's name).
With `CCCCCCCCCCCC[C@@H](O)[C@H](O)CC[C@H](O)C[C@@H](O)C[C@H](O)[C@@H]1CC[C@@H]([C@H](O)CC[C@@H](O)CC2=C[C@H](C)OC2=O)O1` [CORIAHEPTOCIN A], the EC50 was determined as 0.63 µg/mL (≈ 0.977 µM).

As to `CCCCCCCCCCCC[C@@H](O)[C@H](O)CC[C@H](O)C[C@@H](O)C[C@H](O)[C@@H]1CC[C@H]([C@H](O)CC[C@@H](O)CC2=C[C@H](C)OC2=O)O1` [CORIAHEPTOCIN B], the EC50 is 0.18 µg/mL (≈ 0.279 µM).

In the case of `CC(=O)O[C@H]1C(=O)[C@@]2(C)[C@H]([C@H](OC(=O)c3ccccc3)[C@]3(O)C[C@H](OC(=O)[C@H](O)[C@@H](NC(=O)c4ccccc4)c4ccccc4)C(C)=C1C3(C)C)[C@]1(OC(C)=O)CO[C@@H]1C[C@@H]2O` [PACLITAXEL], the EC50 is 0.02 µg/mL (≈ 0.0234 µM).

(Values after ChEMBL document CHEMBL1146393, “Coriaheptocins A and B, the First Heptahydroxylated Acetogenins, Isolated from the Roots of Annona coriacea 1” (1997).)
